From PubChem BioAssay (NCI) come the findings set out here.

Holding throughout (assay): NCI-60 cell line screen, 48 h
In assay [1] the test system is HCT-15 colon.
In assay [2] the test system is IGROV1 ovarian.
The subject of assay [3] is COLO 205 colon.
Assay [4] has as its system T-47D breast.
Assay [5] concerns MALME-3M melanoma.
For assay [6], the system named is SNB-75 CNS.
Assay [7] deals with TK-10 renal.
In assay [8] the test system is KM12 colon.

Several values for one entry are separate records, joined by “and”; a condition that tells them apart may be missing. Equal values may be shown once.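 Dose response: 5 concentrations. Exposure: 48 h. Format: 96-well plates. Endpoint: linear interpolation; highest concentration if not reached. GI50: concentration for 50% inhibition of growth. TGI marks complete inhibition of growth.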

For the molecule `COc1ccccc1/C=C\C(=O)C1COCN1` (stereo unspecified), the TGI in assay [1] stood at 35.8 µM; in assay [2], 64.6 µM; in assay [3], 33.2 µM; in assay [4] it was 20.7 µM; in assay [5], 45.7 µM; in assay [6] it was 41.3 µM. For the same molecule, the figures for the TGI in assay [7] and in assay [8] were 50.8 µM and 24.6 µM, respectively.

`CNC(=O)c1c(F)cccc1Nc1nc(Nc2cc3c(cc2OC)CCN3C(=O)CN(C)C)nc2[nH]ccc12`: the GI50 was 3.08 µM in assay [1]; 17.5 µM in assay [2]; 0.151 µM in assay [3]; 8.19 µM in assay [4]; 1.5 µM in assay [5]; 11.7 µM in assay [6]. Moreover, the GI50 was 4.76 µM in assay [7] and 2.23 µM in assay [8]. Further, the TGI was determined as 19 µM in assay [1]; 43.1 µM in assay [2]; 3.48 µM in assay [3]; 28.4 µM in assay [4]; 3.13 µM in assay [5]; 24.7 µM in assay [6]. Besides, the TGI stood at 11.8 µM in assay [7] and 4.99 µM in assay [8].

Turning to `NC(Cc1c[nH]c2ccc([N+](=O)[O-])cc12)C(=O)O` (stereo unspecified), the TGI in assay [1], in assay [2], in assay [3], in assay [4], in assay [5] and in assay [6] was > 100 µM in each case. For the same molecule, the TGI in assay [7] and in assay [8] was > 100 µM each time.

Take `COc1ccccc1[As]=[As]c1ccccc1OC` (stereo unspecified): the GI50 was 0.0288 µM in assay [1]; 0.0414 µM in assay [2]; 0.0209 µM in assay [3]; 0.0366 µM in assay [4]; 0.0443 µM in assay [5]; 0.0305 µM in assay [6]. Besides, the GI50 in assay [7] is 0.0401 µM; in assay [8] it was 0.11 µM. The TGI in assay [1] was determined as 0.118 µM; in assay [2] it was 0.209 µM; in assay [3], 0.0475 µM; in assay [4], 0.199 µM; in assay [5], 0.145 µM; in assay [6], 0.13 µM. For the same molecule, the TGI in assay [7] turned out to be 0.141 µM; in assay [8], 0.24 µM.

Consider `N#Cc1nc(C#N)c(Sc2ccccc2)c(Sc2ccccc2)c1Sc1ccccc1`, for which the GI50 in assay [1] is 0.574 µM; in assay [2], 0.732 µM; in assay [3], 0.719 µM; in assay [4], 0.584 µM; in assay [5], 1.48 µM; in assay [6] it was 2.42 µM. Moreover, the results for the GI50 in assay [7] and in assay [8] were 0.502 µM and 1.67 µM, respectively. Further, the TGI in assay [1] was 3.21 µM; in assay [2] it was 2.3 µM; in assay [3], 2.03 µM; in assay [4] it was 2.48 µM; in assay [5], 5.04 µM; in assay [6] it was > 29.3 µM. Further, the TGI in assay [7] worked out at 3.43 µM; in assay [8], 3.26 µM.

With `COS(C)(=O)=O`, the TGI in assay [1], in assay [2], in assay [3], in assay [4], in assay [5] and in assay [6] was > 2 µM each time. Also, the TGI in assay [7] and in assay [8] was > 2 µM throughout.

As for `Oc1ccc2ccccc2c1C=NCc1c(O)ccc2ccccc12`, the TGI in assay [1], in assay [2], in assay [3], in assay [4], in assay [5] and in assay [6] was > 100 µM throughout. Further, the TGI in assay [7] and in assay [8] was > 100 µM each time.

For the molecule `COc1ccc2c(c1)CCc1cc(OC)ccc1/[N+]([O-])=[N+]\2[O-]`, the TGI was determined as 42.9 µM in assay [1]; 35 µM in assay [2]; 28.8 µM in assay [3]; 49.1 µM in assay [4]; 38.5 µM in assay [5]; 33.3 µM in assay [6]. Also, the TGI in assay [7] turned out to be 45 µM; in assay [8] it was 46 µM.

`c1ccc(Oc2ccc(Nc3ncc(-c4ccccc4)o3)cc2)cc1`: the GI50 in assay [1], in assay [2], in assay [3], in assay [4], in assay [5] and in assay [6] was > 25 µM throughout. The GI50 in assay [7] and in assay [8] was > 25 µM each time. Further, the TGI in assay [1], in assay [2], in assay [3], in assay [4], in assay [5] and in assay [6] was > 25 µM throughout. For the same molecule, the TGI in assay [7] and in assay [8] was > 25 µM in each case.

Take `CC(=O)Nc1ccc(S(=O)(=O)N=S(C)C)cc1`: the TGI in assay [1], in assay [2], in assay [3], in assay [4], in assay [5] and in assay [6] was > 100 µM in each case. For the same molecule, the TGI in assay [7] and in assay [8] was > 100 µM each time.

Take `CS(=O)(=O)c1cccc(Nc2ncc3cc(-c4ccccc4Cl)ccc3n2)c1`: the GI50 in assay [1] was 0.821 µM; in assay [2], 1.1 µM; in assay [3], 1.19 µM; in assay [4], 1.1 µM; in assay [5], 1.22 µM; in assay [6] it was 0.507 µM. Also, the GI50 in assay [7] was 1.9 µM; in assay [8], 1.2 µM. Besides, the TGI in assay [1] was > 33.3 µM; in assay [2], 12.4 µM; in assay [3], 3.13 µM; in assay [4], > 33.3 µM; in assay [5], 9.84 µM; in assay [6], 2.3 µM. Moreover, the TGI is 17.3 µM in assay [7] and > 33.3 µM in assay [8].

In the case of `CC[C@H](C)[C@H](NC(=O)[C@H]1CCCCN1C)C(=O)N(C)[C@H](C[C@@H](OC(C)=O)c1cccc(C(=O)N[C@@H](Cc2ccccc2)C[C@H](C)C(=O)O)n1)C(C)C`, the GI50 in assay [1] was 0.0064 µM and 0.0025 µM; in assay [2] it was 0.0038 µM and 0.0025 µM; in assay [3], 0.00187 µM; in assay [4], 0.00136 µM; in assay [5], 1.95 µM; in assay [8] it was 0.00116 µM and 0.0025 µM. Besides, the TGI in assay [1] was > 25 µM; in assay [2], > 25 µM; in assay [3], 0.0143 µM; in assay [5], > 25 µM; in assay [6] it was > 25 µM; in assay [7], > 25 µM. Also, in assay [8], the TGI is > 25 µM.
